Measurements reported in publication PMC9143228, “Evaluation of 3-Borono-L-Phenylalanine as a Water-Soluble Boron Neutron Capture Therapy Agent” (Pharmaceutics, 2022).
Converted amounts (≈) assume the structure as drawn.

Legend:
[1] = Water solubility (boron in supernatant by ICP-MS); type: physicochemical; settings: for solubility at 24 h: 25 °C, 24 h stirring, n = 6
Method: 3-BPA or 4-BPA (40 mg) were suspended in 200 μL water and stirred at 25 °C for 24 h. After stirring, the solution was centrifuged at 5000 rpm for 10 min, and the amount of boron in the supernatant solution was measured by 8800 triple quadrupole ICP-MS (Agilent, Santa Clara, CA, USA). The experiment was repeated twice with n = 3.

[2] = Log p measurement (water/1-octanol, ICP-MS); type: physicochemical; settings: v/v); water:1-octanol 1:1, n = 12
Method: After dissolving 3-BPA or 4-BPA in water (0.2 mg/mL), 1-octanol was added to compose a water:1-octanol (1:1, v/v) mixture. The mixture was shaken for 5 min and then centrifuged at 5000 rpm for 10 min. The amount of boron was measured for each liquid phase using ICP-MS, and log p was calculated from the concentration ratio of each liquid phase. The experiment was repeated twice with n = 6.

[3] = system: T3M-4 human pancreatic adenocarcinoma cells; assay: Cellular uptake study, T3M-4; type: cell-based; settings: for Boron uptake, specific (LAT1-specific): difference non-inhibitor minus inhibitor; for Boron uptake, non-inhibitor: no inhibitor, mixed with fructose; for Boron uptake, inhibitor: with 10 µM LAT1 inhibitor JPH203
Method: (§1) B16F10 mouse melanoma cells (RCB2630) and T3M-4 human pancreatic adenocarcinoma cells (RCB1021) were provided by the RIKEN BRC (Ibaraki, Japan). U-87MG human glioblastoma cells were provided by Prof. Magata (Hamamatsu University School of Medicine, Hamamatsu, Japan), and A549 human lung carcinoma cells (CCL-185) were obtained from ATCC (Manassas, VA, USA). Cells were cultured in growth medium RPMI 1640 for B16F10 and T3M-4 and DMEM for A549 and U-87MG, containing 10% fetal bovine serum at 37 °C in a humidified atmosphere of 5% CO2.
(§2) Cells were cultured in six-well plates 2 days before the experiment. After medium removal, cells were washed twice with choline buffer (140 mM choline chloride, 2 mM potassium chloride, 1 mM magnesium chloride, 1 mM calcium chloride, 1 M Tris) and preincubated with 900 µL of choline buffer containing/not containing 10 µM of the LAT1-specific inhibitor JPH203 [32, 33] (Selleck Biotech, Tokyo, Japan) at 37 °C for 5 min. After incubation, 100 µL of 3-BPA or 4-BPA mixed with fructose (0.5 mg/mL, 0.11 w/v% Fru, pH 7.4) was added and incubated at 37 °C for 1, 5, and 30 min. After washing three times with choline buffer, 400 µL of 0.2 M NaOH was added to lyse the cells. After the amount of cell protein was measured using the BCA method (Thermo Fisher Scientific, Tokyo, Japan) and the mixture was ashed with nitric acid, the amount of boron was measured using ICP-MS. The accumulation rate was calculated as % dose/mg protein from the quantified dose of boron in added 3-BPA and 4-BPA, respectively (n = 3).

[4] = system: A549 human lung carcinoma cells; assay: Cellular uptake study, A549; type: cell-based; settings: for Boron uptake, specific (LAT1-specific): difference non-inhibitor minus inhibitor; for Boron uptake, non-inhibitor: no inhibitor, mixed with fructose; for Boron uptake, inhibitor: with 10 µM LAT1 inhibitor JPH203
Method: as §1, §2

[5] = system: B16F10 mouse melanoma cells; assay: Cellular uptake study, B16F10; type: cell-based; settings: for Boron uptake, specific (LAT1-specific): difference non-inhibitor minus inhibitor; for Boron uptake, non-inhibitor: no inhibitor, mixed with fructose; for Boron uptake, inhibitor: with 10 µM LAT1 inhibitor JPH203
Method: as §1, §2

[6] = system: U-87MG human glioblastoma cells; assay: Cellular uptake study, U-87MG; type: cell-based; settings: for Boron uptake, specific (LAT1-specific): difference non-inhibitor minus inhibitor; for Boron uptake, non-inhibitor: no inhibitor, mixed with fructose; for Boron uptake, inhibitor: with 10 µM LAT1 inhibitor JPH203
Method: as §1, §2

[7] = parameters: method as in doi:10.1007/978-1-4757-9567-7_10; settings: cited from earlier work
[8] = cited from earlier work

NC(Cc1cccc(O)c1)C(=O)O (racemic) [meta-Tyrosine, DL-meta-tyrosine]
Solubility (g/L) (in water, 25°C, n = 3) ([1]; in water, 25°C, n = 3, Table S8): 9.8 ± 0.1 g/L (≈ 54.1 mM) | Water solubility of DL-meta-tyrosine relative to DL-tyrosine ([1]; times higher than DL-tyrosine): more than 25 times

N[C@@H](Cc1ccc(B(O)O)cc1)C(=O)O [4-BPA, 4-borono-L-phenylalanine]
solubility at 24 h ([1]; in water): 0.72 ± 0.13 mg/mL (≈ 3.44 mM) | logP [2]: -1.8 ± 0.04 | Boron uptake, specific (LAT1-specific) ([3]; T3M-4, 1 min): 0.56 ± 0.11 % dose/mg protein | Boron uptake, non-inhibitor ([3]; T3M-4, 1 min): 0.82 ± 0.11 % dose/mg protein | Boron uptake, inhibitor ([3]; T3M-4, 1 min): 0.26 ± 0.16 % dose/mg protein | Boron uptake, specific (LAT1-specific) ([3]; T3M-4, 5 min): 3.10 ± 0.39 % dose/mg protein | Boron uptake, non-inhibitor ([3]; T3M-4, 5 min): 3.28 ± 0.39 % dose/mg protein | Boron uptake, inhibitor ([3]; T3M-4, 5 min): 0.18 ± 0.02 % dose/mg protein | Boron uptake, specific (LAT1-specific) ([3]; T3M-4, 30 min): 5.19 ± 0.45 % dose/mg protein | Boron uptake, non-inhibitor ([3]; T3M-4, 30 min): 5.40 ± 0.45 % dose/mg protein | Boron uptake, inhibitor ([3]; T3M-4, 30 min): 0.20 ± 0.01 % dose/mg protein | Boron uptake, specific (LAT1-specific) ([4]; A549, 1 min): 0.13 ± 0.04 % dose/mg protein | Boron uptake, non-inhibitor ([4]; A549, 1 min): 0.14 ± 0.04 % dose/mg protein | Boron uptake, inhibitor ([4]; A549, 1 min): 0.01 ± 0.01 % dose/mg protein | Boron uptake, specific (LAT1-specific) ([4]; A549, 5 min): 0.66 ± 0.08 % dose/mg protein | Boron uptake, non-inhibitor ([4]; A549, 5 min): 0.66 ± 0.08 % dose/mg protein | Boron uptake, inhibitor ([4]; A549, 5 min): 0.00 ± 0.01 % dose/mg protein | Boron uptake, specific (LAT1-specific) ([4]; A549, 30 min): 3.75 ± 0.20 % dose/mg protein | Boron uptake, non-inhibitor ([4]; A549, 30 min): 3.92 ± 0.20 % dose/mg protein | Boron uptake, inhibitor ([4]; A549, 30 min): 0.17 ± 0.09 % dose/mg protein | Boron uptake, specific (LAT1-specific) ([5]; B16F10, 1 min): 0.03 ± 0.01 % dose/mg protein | Boron uptake, non-inhibitor ([5]; B16F10, 1 min): 0.03 ± 0.01 % dose/mg protein | Boron uptake, inhibitor ([5]; B16F10, 1 min): 0.00 ± 0.01 % dose/mg protein | Boron uptake, specific (LAT1-specific) ([5]; B16F10, 5 min): 0.48 ± 0.01 % dose/mg protein | Boron uptake, non-inhibitor ([5]; B16F10, 5 min): 0.62 ± 0.01 % dose/mg protein | Boron uptake, inhibitor ([5]; B16F10, 5 min): 0.14 ± 0.03 % dose/mg protein | Boron uptake, specific (LAT1-specific) ([5]; B16F10, 30 min): 0.56 ± 0.06 % dose/mg protein | Boron uptake, non-inhibitor ([5]; B16F10, 30 min): 0.57 ± 0.06 % dose/mg protein | Boron uptake, inhibitor ([5]; B16F10, 30 min): 0.01 ± 0.01 % dose/mg protein | Boron uptake, specific (LAT1-specific) ([6]; 1 min): 0.05 ± 0.02 % dose/mg protein | Boron uptake, non-inhibitor ([6]; 1 min): 0.13 ± 0.02 % dose/mg protein | Boron uptake, inhibitor ([6]; 1 min): 0.08 ± 0.01 % dose/mg protein | Boron uptake, specific (LAT1-specific) ([6]; 5 min): 0.06 ± 0.02 % dose/mg protein | Boron uptake, non-inhibitor ([6]; 5 min): 0.20 ± 0.02 % dose/mg protein | Boron uptake, inhibitor ([6]; 5 min): 0.14 ± 0.02 % dose/mg protein | Boron uptake, specific (LAT1-specific) ([6]; 30 min): 0.31 ± 0.03 % dose/mg protein | Boron uptake, non-inhibitor ([6]; 30 min): 0.48 ± 0.03 % dose/mg protein | Boron uptake, inhibitor ([6]; 30 min): 0.17 ± 0.01 % dose/mg protein | pKa1 [7]: 2.35 | pKa2 [7]: 8.45 | pKa3 [7]: 9.67 | Water solubility under neutral conditions ([8]; neutral conditions, ref Borofalan interview form): 0.6 to 0.7 mg/mL

N[C@@H](Cc1cccc(B(O)O)c1)C(=O)O [3-BPA, 3-borono-L-phenylalanine]
solubility at 24 h ([1]; in water): 125 mg/mL (≈ 598 mM) | Water solubility of 3-BPA relative to 4-BPA ([1]; times higher than 4-BPA): more than 100 times | logP [2]: -1.59 | Boron uptake, specific (LAT1-specific) ([3]; T3M-4, 1 min): 0.69 ± 0.09 % dose/mg protein | Boron uptake, non-inhibitor ([3]; T3M-4, 1 min): 0.78 ± 0.09 % dose/mg protein | Boron uptake, inhibitor ([3]; T3M-4, 1 min): 0.09 ± 0.08 % dose/mg protein | Boron uptake, specific (LAT1-specific) ([3]; T3M-4, 5 min): 3.55 ± 0.40 % dose/mg protein | Boron uptake, non-inhibitor ([3]; T3M-4, 5 min): 3.55 ± 0.40 % dose/mg protein | Boron uptake, inhibitor ([3]; T3M-4, 5 min): 0.09 ± 0.07 % dose/mg protein | Boron uptake, specific (LAT1-specific) ([3]; T3M-4, 30 min): 5.41 ± 0.63 % dose/mg protein | Boron uptake, non-inhibitor ([3]; T3M-4, 30 min): 5.62 ± 0.63 % dose/mg protein | Boron uptake, inhibitor ([3]; T3M-4, 30 min): 0.21 ± 0.06 % dose/mg protein | Boron uptake, specific (LAT1-specific) ([4]; A549, 1 min): 0.30 ± 0.12 % dose/mg protein | Boron uptake, non-inhibitor ([4]; A549, 1 min): 0.48 ± 0.12 % dose/mg protein | Boron uptake, inhibitor ([4]; A549, 1 min): 0.18 ± 0.03 % dose/mg protein | Boron uptake, specific (LAT1-specific) ([4]; A549, 5 min): 0.94 ± 0.40 % dose/mg protein | Boron uptake, non-inhibitor ([4]; A549, 5 min): 1.22 ± 0.13 % dose/mg protein | Boron uptake, inhibitor ([4]; A549, 5 min): 0.29 ± 0.02 % dose/mg protein | Boron uptake, specific (LAT1-specific) ([4]; A549, 30 min): 3.60 ± 0.24 % dose/mg protein | Boron uptake, non-inhibitor ([4]; A549, 30 min): 4.02 ± 0.24 % dose/mg protein | Boron uptake, inhibitor ([4]; A549, 30 min): 0.42 ± 0.01 % dose/mg protein | Boron uptake, specific (LAT1-specific) ([5]; B16F10, 1 min): 0.03 ± 0.03 % dose/mg protein | Boron uptake, non-inhibitor ([5]; B16F10, 1 min): 0.23 ± 0.03 % dose/mg protein | Boron uptake, inhibitor ([5]; B16F10, 1 min): 0.21 ± 0.06 % dose/mg protein | Boron uptake, specific (LAT1-specific) ([5]; B16F10, 5 min): 0.42 ± 0.11 % dose/mg protein | Boron uptake, non-inhibitor ([5]; B16F10, 5 min): 0.59 ± 0.11 % dose/mg protein | Boron uptake, inhibitor ([5]; B16F10, 5 min): 0.17 ± 0.11 % dose/mg protein | Boron uptake, specific (LAT1-specific) ([5]; B16F10, 30 min): 0.56 ± 0.07 % dose/mg protein | Boron uptake, non-inhibitor ([5]; B16F10, 30 min): 0.80 ± 0.07 % dose/mg protein | Boron uptake, inhibitor ([5]; B16F10, 30 min): 0.24 ± 0.01 % dose/mg protein | Boron uptake, specific (LAT1-specific) ([6]; 1 min): 0.02 ± 0.04 % dose/mg protein | Boron uptake, non-inhibitor ([6]; 1 min): 0.33 ± 0.04 % dose/mg protein | Boron uptake, inhibitor ([6]; 1 min): 0.31 ± 0.05 % dose/mg protein | Boron uptake, specific (LAT1-specific) ([6]; 5 min): 0.15 ± 0.04 % dose/mg protein | Boron uptake, non-inhibitor ([6]; 5 min): 0.28 ± 0.04 % dose/mg protein | Boron uptake, inhibitor ([6]; 5 min): 0.14 ± 0.05 % dose/mg protein | Boron uptake, specific (LAT1-specific) ([6]; 30 min): 0.21 ± 0.05 % dose/mg protein | Boron uptake, non-inhibitor ([6]; 30 min): 0.45 ± 0.05 % dose/mg protein | Boron uptake, inhibitor ([6]; 30 min): 0.24 ± 0.04 % dose/mg protein | pKa1 [7]: 2.26 | pKa2 [7]: 8.46 | pKa3 [7]: 9.95

N[C@@H](Cc1ccccc1)C(=O)O [phenylalanine]
solubility ([1]; in water, 25°C, n = 3, Table S8, read-out: Solubility (g/L) (in water, 25°C, n = 3)): 15.3 ± 0.1 g/L (≈ 92.6 mM) | water solubility [8]: 12.0 mg/mL (≈ 72.6 mM)
